# Experimental data as given in patent publication US7098219B2, “Inhibitors of cellular efflux pumps of microbes” (Wockhart Limited, priority 2000, dated 2006).
# What was measured:
# [1] = tested on: E. coli 2051; test: Antibiotic diffusion assay, levofloxacin plate versus water control plate; format: cell-based, Escherichia coli; conditions: zone of inhibition in levofloxacin (15 mcg/ml) plate minus water control plate; Mueller Hinton Agar, 35° C. 20 hours
# Experimental: (§1) Testing method for Inhibition of the Efflux Pumps of Pseudomonas aeruzinosa 23587, E. coli 2051, Streptococcus pneumoniae 3514 and Streptococcus pyozenus 26-00
# The activity of an efflux pump inhibitor of E. coli 2051 was also assessed using an antibiotic diffusion assay. For this assay E. coli 2051 is used. E. coli 2051 is a clinical isolate containing multiple efflux pumps. E. coli 2051 are grown in tryptic soya broth for 20 hours at 35° C. Two antibiotic assay plates are prepared in Mueller Hinton Agar using above inoculum. The bacterial count in a plate is 1×10^6 cells/ml. In one of the plates, levofloxacin is incorporated at 15 mcg/ml, while in the control plate an equivalent amount of water is added. […]. The plates are incubated at 35° C. for 20 hours and the zone of inhibition was recorded in mm (table 3) . The difference in the diameter of zone of inhibition was calculated by subtracting from the zone of inhibition in the levofloxacin containing plate the diameter of the zone of inhibition in the control plate.
# [2] = tested on: Pseudomonas aeruginosa 23587; test: as above; format: cell-based; conditions: zone of inhibition in levofloxacin (5 mcg/ml) plate minus water control plate; Mueller Hinton Agar, 35° C. 20 hours
# Experimental: as §1
# Antibiotic Diffusion Assay
# The activity of efflux pump inhibitor was also assessed using an antibiotic diffusion assay. For this assay Pseudomonas aeruginosa 23587 is used. Pseudomonas aeruginosa 23587 is a clinical isolate containing multiple efflux pumps which can be mexAB, mexCD, mexEF but not limited to mex classification only. Pseudomonas aeruginosa are grown in tryptic soya broth for 20 hours at 35° C. Two antibiotic assay plates are prepared in Mueller Hinton Agar using above inoculum. The bacterial count in a plate is 1×10^6 cells/ml. In one of the plates, levofloxacin is incorporated at 5 mcg/ml, while in the control plate an equivalent amount of water is added. […]. The plates are incubated at 35° C. for 20 hours and the zone of inhibition was recorded in mm (table 2). The difference in the diameter of zone of inhibition was calculated by subtracting from the diameter of the zone of inhibition in the levofloxacin containing plate the diameter of the zone of inhibition in the water containing control plate. Example, if the diameter of the zone of inhibition in the levofloxacin plate is X mm and the diameter of the zone of inhibition in the control plate is Y mm, the difference Z=X−Y and is a measure of the activity of the efflux pump inhibitor.
# [3] = tested on: Staphylococcus aureus 1199 B NorA+; format: cell-based; conditions: combination with ciprofloxacin, broth microdilution checkerboard, 35° C. 20 hours; FIC index ≦0.5 synergistic, 0.5–2.0 additive, >2.0 antagonistic
# How it was run: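 Broth microdilution checkerboard with ciprofloxacin against S. aureus 1199B NorA+, pump inhibitor titrated along one axis; inoculum 5×10^5 CFU/ml in Mueller Hinton broth, 35 °C for 20 hours. Growth read by visible turbidity, confirmed by plate reader; FIC index derived from inhibitor MIC in combination versus alone.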
# [4] = tested on: Mef Efflux Pump of Streptococcus pneumoniae 3514 and Streptococcus pyogenes 26-00; test: Two plate diffusion assay for macrolide (Mef) efflux pump inhibitors, azithromycin plate versus control plate; format: cell-based; conditions: zone of inhibition in antibiotic plate (method: azithromycin 0.5 mcg/ml; footnote: levofloxacin) minus water control plate; strain not given
compound,measurement,setting,value
"C[C@@H]1CN(c2c(F)cc3c(=O)c(C(=O)O)cn4c3c2CC[C@@H]4C)CC[C@H]1O (relative stereo) [Example 35 (P. aeruginosa), S-(−)-9-Fluoro-6,7-dihydro-8-(trans-4′-hydroxy-3′-methylpiperidin-1-yl]-5-methyl-1H,5H-benzo[i,j]quinolizine-2-carboxylic acid]",Difference in Zone diameter Z1 (mm),[1],8 mm
same,Difference in Zone diameter Z1 (mm),[2],8 mm
"C[C@H]1CCc2c(N3CCC(O)CC3)c(F)cc3c(=O)c(C(=O)[O-])cn1c23.C[N+](C)(C)CCO [Example 22 (P. aeruginosa), S-(−)-9-Fluoro-6,7-dihydro-8-(4′-hydroxypiperidin-1-yl)-5-methyl-1-oxo-1H,5H-benzo[i,j]quinolizine-2-carboxylic acid, choline salt]",Difference in Zone diameter Z1 (mm),[1],9 mm
same,Difference in Zone diameter Z1 (mm),[2],3 mm
"C[C@H]1CCc2c(N3CCC(O)CC3)c(F)cc3c(=O)c(C(=O)O)cn1c23 [Example 21 (P. aeruginosa), S-(−)-9-Fluoro-6,7-dihydro-8-(4′-hydroxypiperidin-1-yl)-5-methyl-1-oxo-1H,5H-benzo[i,j]quinolizine-2-carboxylic acid 0.2 hydrate]",Difference in Zone diameter Z1 (mm),[1],9 mm
same,Difference in Zone diameter Z1 (mm),[2],5 mm
"C[C@H]1CCc2c(N3CCC(O)CC3)c(F)cc3c(=O)c(C(=O)O)cn1c23.OCCNCCO [Example 24 (P. aeruginosa), S-(−)-9-Fluoro-6,7-dihydro-8-(4′-hydroxypiperidin-1-yl)-5-methyl-1-oxo-1H,5H-benzo[i,j]quinolizine-2-carboxylic acid, diethanolamine salt]",Difference in Zone diameter Z1 (mm),[1],11 mm
same,Difference in Zone diameter Z1 (mm),[2],4 mm
"COc1c(N2CCC(N)C(C)(C)C2)c(F)cc2c(=O)c(C(=O)O)cn(C3CC3)c12 (centres unmarked) [Example 6 (P. aeruginosa), 1-Cyclopropyl-6-fluoro-8-methoxy-1,4-dihydro-7-(4′-amino-3′-3′-dimethylpiperidin-1-yl)-4-oxo-quinoline-3-carboxylic acid]",Difference in Zone diameter Z1 (mm),[1],11 mm
same,Difference in Zone diameter Z1 (mm),[2],12 mm
"CC(C)C[C@@H](N)C(=O)OC1CCN(c2c(F)cc3c(=O)c(C(=O)O)cn4c3c2CC[C@@H]4C)CC1.Cl [Example 29 (P. aeruginosa), (S)-(−)-9-Fluoro-6,7-dihydro-8-{4′-(D-leucyloxy)piperidin-1-yl}-5-methyl-1-oxo-1H,5H-benzo[i,j]quinolizine-2-carboxylic acid hydrochloride]",Difference in Zone diameter Z1 (mm),[1],18 mm
same,Difference in Zone diameter Z1 (mm),[2],12 mm
"Cc1c(F)c(Br)cc2c1c(=O)c(C(=O)O)cn2C1CC1 [Example 2 (P. aeruginosa), 7-Bromo-1-cyclopropyl-6-fluoro-5-methyl-1l 4-dihydro-4-oxo-quinoline-3-carboxylic acid]",Difference in Zone diameter Z1 (mm),[1],9 mm
same,Difference in Zone diameter Z1 (mm),[2],1 mm
"(S)-(−)-Morpholinoethyl-9-fluoro-6,7-dihydro-8-(4′-hydroxypiperidin-1-yl)-5-methyl-1-oxo-1H,5H-benzo[i,j]quinolizine-2-carboxylic acid [Example 58 (NorA)]",FIC INDEX,[3],0.370
same,Difference in Zone diameter Z1 (mm),[1],8 mm
same,Difference in Zone diameter Z1 (mm),[2],2 mm
"COc1c(N2CCC(N)C(C)C2)c(F)cc2c(=O)c(C(=O)O)cn(C3CC3)c12 (centres unmarked) [Example 3 (P. aeruginosa), 1-Cyclopropyl-6-fluoro-8-methoxy-1,4-dihydro-7-(4′-amino-3′-methylpiperidin-1-yl)-4-oxo-quinoline-3-carboxylic acid]",Difference in Zone diameter Z1 (mm),[4],26 mm
same,Difference in Zone diameter Z1 (mm),[1],10 mm
same,Difference in Zone diameter Z1 (mm),[2],7 mm
"10-Fluoro-11-[(1∝,5∝,6∝)-6-amino-3-azabicyclo[3.1.01]hex-3yl]-3,4-dihydro-4(S)-methyl-8-oxo-2H,8H-pyrido[1,2,3-ef]-1,5-benzoxazipin-7-carboxylic acid. HCl [Example 37 (P. aeruginosa)]",Difference in Zone diameter Z1 (mm),[1],5 mm
same,Difference in Zone diameter Z1 (mm),[2],2 mm
"(R)-(+)-9,8-fluoro-8-fluoro-6,7-dihydro-5-methyl-1-oxo-1H,5H-benzo[i,j]quinolizine-2-carboxylate Methoxy phe-lys-OMe [Example 32 (P. aeruginosa)]",Difference in Zone diameter Z1 (mm),[1],11 mm
same,Difference in Zone diameter Z1 (mm),[2],8 mm
"S-(-9-Fluoro-6,7-dihydro-8-(4′-hydroxypiperidin-1-yl)-5-methyl-1-oxo-1H,5H-benzo[i,j]quinolizine-2-carboxylic acid, 1-hydroxyethylpyrrolidine salt [Example 23 (P. aeruginosa)]",Difference in Zone diameter Z1 (mm),[1],11 mm
same,Difference in Zone diameter Z1 (mm),[2],3 mm
